In test [1] the test system is A204. Put plainly: CCK-8 cell proliferation assay. It is filed as cell-based. To be noted: Homo sapiens, read-out: antiproliferative IC50, A204. Here is the method: (§1) The base medium for MDA‐MB‐453 cell line is DMEM medium (CORNING, USA). All other cell lines were cultured in RPMI‐1640 medium supplemented with 10% FBS, 100 U/ml of penicillin, and […] of streptomycin in 5% CO2 at 37℃. The cells in the logarithmic growth phase were used for the experiments.
(§2) Cells were seeded in 96‐well plate in complete medium (1000–6000 cells/well) and cultured for overnight. Then the cells were exposed to gradient concentrations (0.0005–10 μM) of compounds. Cell proliferation was analyzed by Cell Counting Kit 8 (CK04, Dojindo Laboratories, Japan) after co‐incubation for a further 72 h. IC50 values were calculated by fitting of concentration–response curves using GraphPad Prism 8.01 software. Each assay was repeated at least three times.
(§3) The expression and activation levels of FGFR1–4 in these cells were determined via western blot experiments (Figure S1).
On the technique in general: Tetrazolium dyes change colour on reduction, which living cells bring about.

Test [2] deals with A549. Kind of test: CCK-8 cell proliferation assay. It is filed as cell-based. To be noted: Homo sapiens, A549, 72 h, read-out: antiproliferative IC50, A549. Here is the method:
as §1, §2, §3

Test [3] concerns H1581. Kind of test: CCK-8 cell proliferation assay. It is filed as cell-based. To be noted: Homo sapiens, read-out: antiproliferative IC50, H1581. Here is the method: as §1, §2, §3
For test [4], the system named is KATOIII. Kind of test: CCK-8 cell proliferation assay. It counts as cell-based. The following applies: Homo sapiens, KATO III, read-out: antiproliferative IC50, KATOIII. Here is the method: as §1, §2, §3
Test [5] concerns MDA‐MB‐231. Put plainly: CCK-8 cell proliferation assay. It counts as cell-based. To be noted: Homo sapiens, MDA-MB-231, 72 h. Here is the method:
as §1, §2, §3

Test [6] concerns MDA‐MB‐453. Kind of test: CCK-8 cell proliferation assay. It counts as cell-based. To be noted: Homo sapiens, read-out: antiproliferative IC50, MDA‐MB‐453. Here is the method: as §1, §2, §3
Test [7] deals with MKN‐1. Kind of test: CCK-8 cell proliferation assay. It counts as cell-based. The following applies: Homo sapiens, read-out: antiproliferative IC50, MKN‐1. On the procedure:
as §1, §2, §3

In test [8] the test system is NCI‐H716. Kind of test: CCK-8 cell proliferation assay. It counts as cell-based. To be noted: Homo sapiens, read-out: antiproliferative IC50, NCI‐H716. Here is the method:
as §1, §2, §3

Test [9] deals with RT112. Kind of test: CCK-8 cell proliferation assay. To be noted: Homo sapiens, read-out: antiproliferative IC50, RT112. It counts as cell-based. On the procedure: as §1, §2, §3
Test [10] concerns Ba/F3(+IL‐3). Put plainly: CCK-8 proliferation assay in parental Ba/F3 cells. It is filed as cell-based. The following applies: Mus musculus, read-out: IC50 (μΜ) Ba/F3(+IL‐3). On the procedure:
(§4) The Ba/F3 cell lines stably expressing FGFR1, FGFR1‐V561M, FGFR1‐V561F, FGFR1‐K656N, and FGFR1‐K656E were self‐established through electroporation pCDNA3.1‐TEL plasmids using the Amaxa Cell Line Nucleofector Kit V (Lonza, Cologne, Germany). Stable cell lines were selected by G418 (Merck, USA) and then withdrawal of IL‐3 (R&D). […] Parental Ba/F3 cells were maintained in RPMI 1640 supplemented with 10% FBS, 100 U/ml of penicillin, […] of streptomycin, and 10 ng/ml of IL‐3, while all Ba/F3 stable cell lines were cultured in the same medium without IL‐3.
as §2
(§5) There is, however, no commercially available FGFR1 mutant kinase to validate this. Therefore, we constructed Ba/F3 model cells stably expressing FGFR1‐WT, K656E, K656N, V561M, and V561F mutations.

The test system of test [11] is SNU16. Kind of test: CCK-8 cell proliferation assay. It is filed as cell-based. The following applies: Homo sapiens, SNU-16, 72 h, read-out: antiproliferative IC50, SNU16. On the procedure:
as §1, §2, §3

The subject of test [12] is Ba/F3‐FGFR1. Put plainly: CCK-8 proliferation assay in Ba/F3 stable cells. The following applies: Mus musculus, BaF3, 72 h, read-out: IC50 (μΜ) Ba/F3‐FGFR1. It counts as cell-based. Here is the method: as §4, §2, §5
For test [13], the system named is Ba/F3‐FGFR1‐K656E. Kind of test: CCK-8 proliferation assay in Ba/F3 stable cells. It is filed as cell-based. The following applies: Mus musculus, BaF3, 72 h, read-out: IC50 (μΜ) Ba/F3‐FGFR1‐K656E. Here is the method: as §4, §2, §5
The subject of test [14] is Ba/F3‐FGFR1‐K656N. Kind of test: CCK-8 proliferation assay in Ba/F3 stable cells. It is filed as cell-based. To be noted: Mus musculus, BaF3, 72 h, read-out: IC50 (μΜ) Ba/F3‐FGFR1‐K656N. On the procedure:
as §4, §2, §5

The test system of test [15] is Ba/F3‐FGFR1‐V561F. Kind of test: CCK-8 proliferation assay in Ba/F3 stable cells. To be noted: Mus musculus, BaF3, 72 h, read-out: IC50 (μΜ) Ba/F3‐FGFR1‐V561F. It counts as cell-based. On the procedure:
as §4, §2, §5

The test system of test [16] is Ba/F3‐FGFR1‐V561M. Put plainly: CCK-8 proliferation assay in Ba/F3 stable cells. It counts as cell-based. On the procedure: as §4, §2, §5
Test [17] relates to FGFR1‐V561M. The following applies: no reference given; cited from earlier work.
Test [18] has as its system FGFR1 WT. The following applies: no reference given; cited from earlier work.
Test [19] deals with Ba/F3‐FGFR1‐V561F. Kind of test: Cell cycle analysis by flow cytometry (propidium iodide). It counts as cell-based. The following applies: 1000 nM. On the procedure: About 6 × 10^5 cells were re‐suspended in 150 μl of BD Cytofix/Cytoperm buffer solution I for 10 min at room temperature. The cell suspensions were added with BD Cytofix/Cytoperm buffer solution II and incubated with another 10 min at room temperature, and then incubated with 200 μl of propidium iodide buffer (0.1 mg/ml) in the dark for 10 min at 4℃. Assays were performed with a Guava easyCyte flow cytometer (Merck, USA).
A general note: In flow cytometry, cells or beads pass a laser one at a time.

The test system of test [20] is Ba/F3‐FGFR1‐V561F. Kind of test: Apoptosis assay by flow cytometry (Annexin V / 7-AAD). It is filed as cell-based. The following applies: 1000 nM. Here is the method:
After incubation, cells were collected and washed twice with pre‐cold PBS. About 6 × 10^5 cells were resuspended in 100 μl of 1× BD binding buffer solution (#556454, BD), and then stained with 7‐ADD (#559925, BD) and Annexin V‐PE (#556422, BD) in the dark for 15 min. Finally, 400 μl of 1×BD binding buffer solution were added to stop dyeing. The cells were then measured on a Guava easyCyte flow cytometer (Merck, USA).

The text below walks through data of PMC8290231 (Cancer Medicine, 2021).

Where two headings read alike, the source gives them in different places.

Turning to `COCCNc1cc(NC(=O)N2CCCc3cc(CN4CCN(C)CC4=O)c(C=O)nc32)ncc1C#N` [FGF401], the IC50 in [1] (A204, FGFR1 amplification, CCK-8, 72 h) was 8250 ± 708 nM; in test [2] (negative control, CCK-8, 72 h), over 10000 nM; in test [3] (NCI-H1581, FGFR1 amplification, CCK-8, 72 h) it was over 10000 nM; in [4] (FGFR2 amplification, CCK-8, 72 h) it was 9380 ± 2860 nM; in [5] (read-out: antiproliferative IC50, MDA‐MB‐231, negative control, CCK-8, 72 h), over 10000 nM; in test [6] (MDA-MB-453, FGFR4‐Y367C, CCK-8, 72 h), 62.3 ± 27.7 nM. In addition, the IC50 in test [7] (MKN-1, negative control, CCK-8, 72 h) is over 10000 nM; in test [8] (NCI-H716, FGFR2 amplification, CCK-8, 72 h), over 10000 nM; in test [9] (RT-112, FGFR3‐TACC3, CCK-8, 72 h), over 10000 nM.
As for `CCN1C(=O)N(c2c(F)c(OC)cc(OC)c2F)Cc2cnc3[nH]c(CN4CCOCC4)cc3c21` [Pemigatinib], the IC50 in test [10] (BaF3, parental cells with IL-3, CCK-8, 72 h) came out at 8980 ± 1400 nM.
For the compound `Cc1ccc(C(=O)Nc2ccc(CN3CCN(C)CC3)c(C(F)(F)F)c2)cc1C#Cc1cnc2cccnn12` [Ponatinib], the IC50 in test [1] (A204, 72 h) came out at 169 ± 134 nM; in test [2], 990 ± 54.1 nM; in [3] (NCI-H1581, 72 h) it was 128 ± 19.1 nM; in test [4] (72 h) it was 18.7 ± 0.8 nM; in test [5] (read-out: antiproliferative IC50, MDA‐MB‐231), 701 ± 69.9 nM; in test [6] (MDA-MB-453, 72 h) it was 707 ± 26.4 nM. The IC50 came out at 758 ± 72 nM in test [7] (MKN-1, 72 h); 26.4 ± 2.9 nM in test [8] (NCI-H716, 72 h); 216 ± 8.2 nM in [9] (RT-112, 72 h); 78.2 ± 10.2 nM in [11]; 33 ± 2.8 nM in [12]; 88 ± 28 nM in test [13]. In addition, the IC50 is 47 ± 8.8 nM in [14]; 56 ± 9 nM in test [15]; 400 ± 11 nM in [16] (Mus musculus, BaF3, 72 h, read-out: IC50 (μΜ) Ba/F3‐FGFR1‐V561M); 2380 ± 420 nM in test [10] (BaF3, 72 h). Moreover, the “fold increase of IC50 value, Ba/F3‐FGFR1‐V561M compared to Ba/F3‐FGFR1‐WT” value in [16] turned out to be 10 fold. The “reported FGFR1‐V561M kinase inhibitory activity” value in test [17] is reported as 18.6. For the same compound, the “reported FGFR1 WT kinase inhibitory activity” value in test [18] was 1.6.
On to `C=CC(=O)N1CC[C@H](n2nc(C#Cc3cc(OC)cc(OC)c3)c3c(N)ncnc32)C1` [TAS120], for which the “effect on cell cycle” value in test [19] is on record as “weak effect”. In addition, in test [20], the effect on apoptosis entry is listed as “weak effect”.
